Reference: paper PMC5402990 (PLoS Neglected Tropical Diseases, 2017)

Target: PIKfyve (Homo sapiens, UniProt Q9Y2I7)
Format: cell-based

Chain of PIKfyve (Q9Y2I7 whole entry, species assumed): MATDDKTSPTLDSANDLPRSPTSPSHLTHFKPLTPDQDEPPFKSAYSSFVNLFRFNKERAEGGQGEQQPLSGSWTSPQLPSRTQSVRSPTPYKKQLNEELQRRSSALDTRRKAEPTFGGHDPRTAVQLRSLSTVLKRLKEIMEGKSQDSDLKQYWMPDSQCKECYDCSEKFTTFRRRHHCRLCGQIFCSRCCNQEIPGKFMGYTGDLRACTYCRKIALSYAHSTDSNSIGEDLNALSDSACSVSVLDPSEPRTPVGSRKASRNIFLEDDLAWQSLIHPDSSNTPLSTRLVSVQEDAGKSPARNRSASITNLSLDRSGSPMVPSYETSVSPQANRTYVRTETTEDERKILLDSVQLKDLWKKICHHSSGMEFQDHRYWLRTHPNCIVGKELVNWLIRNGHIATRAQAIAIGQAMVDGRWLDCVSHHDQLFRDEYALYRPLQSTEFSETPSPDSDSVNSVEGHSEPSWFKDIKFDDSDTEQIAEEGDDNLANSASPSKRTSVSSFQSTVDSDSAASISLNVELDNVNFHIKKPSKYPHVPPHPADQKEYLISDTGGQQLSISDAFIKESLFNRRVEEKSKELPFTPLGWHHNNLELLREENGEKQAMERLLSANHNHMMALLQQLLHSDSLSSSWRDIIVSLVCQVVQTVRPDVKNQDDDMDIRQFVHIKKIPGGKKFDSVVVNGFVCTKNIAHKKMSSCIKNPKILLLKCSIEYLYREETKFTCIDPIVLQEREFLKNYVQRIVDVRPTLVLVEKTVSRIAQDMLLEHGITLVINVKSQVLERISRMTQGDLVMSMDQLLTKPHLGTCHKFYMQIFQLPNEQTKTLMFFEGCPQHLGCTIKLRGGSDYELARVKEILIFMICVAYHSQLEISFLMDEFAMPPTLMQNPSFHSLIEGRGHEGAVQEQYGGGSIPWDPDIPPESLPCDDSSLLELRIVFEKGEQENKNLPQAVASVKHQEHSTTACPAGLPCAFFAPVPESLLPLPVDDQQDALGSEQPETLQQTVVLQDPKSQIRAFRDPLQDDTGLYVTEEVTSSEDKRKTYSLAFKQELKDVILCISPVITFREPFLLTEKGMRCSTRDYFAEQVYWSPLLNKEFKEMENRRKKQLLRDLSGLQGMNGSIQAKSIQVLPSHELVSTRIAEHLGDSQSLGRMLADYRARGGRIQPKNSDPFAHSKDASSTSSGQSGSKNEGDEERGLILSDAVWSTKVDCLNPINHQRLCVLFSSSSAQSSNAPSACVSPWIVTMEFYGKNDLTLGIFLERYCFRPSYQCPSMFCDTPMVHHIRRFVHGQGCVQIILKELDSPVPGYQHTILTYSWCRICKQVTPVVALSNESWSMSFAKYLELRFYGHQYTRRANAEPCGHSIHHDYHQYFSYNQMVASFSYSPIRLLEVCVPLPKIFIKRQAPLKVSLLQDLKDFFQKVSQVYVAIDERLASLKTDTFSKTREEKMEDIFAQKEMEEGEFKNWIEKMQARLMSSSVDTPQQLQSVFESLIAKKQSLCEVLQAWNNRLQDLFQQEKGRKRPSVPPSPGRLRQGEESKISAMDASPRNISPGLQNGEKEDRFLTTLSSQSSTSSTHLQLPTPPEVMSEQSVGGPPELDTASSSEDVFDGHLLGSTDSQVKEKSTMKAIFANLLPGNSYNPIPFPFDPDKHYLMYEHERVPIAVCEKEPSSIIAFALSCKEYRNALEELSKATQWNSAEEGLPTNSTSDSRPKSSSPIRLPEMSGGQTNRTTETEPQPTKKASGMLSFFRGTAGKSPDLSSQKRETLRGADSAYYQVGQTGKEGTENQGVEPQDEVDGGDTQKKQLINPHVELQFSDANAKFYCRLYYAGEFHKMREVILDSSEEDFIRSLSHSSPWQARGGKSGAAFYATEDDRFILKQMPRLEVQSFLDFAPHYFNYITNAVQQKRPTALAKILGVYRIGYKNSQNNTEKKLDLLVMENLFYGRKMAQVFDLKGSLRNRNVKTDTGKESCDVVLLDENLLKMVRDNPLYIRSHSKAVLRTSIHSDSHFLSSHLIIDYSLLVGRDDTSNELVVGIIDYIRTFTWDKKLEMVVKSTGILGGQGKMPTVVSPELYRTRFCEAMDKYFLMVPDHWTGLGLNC

Cc1cccc(/C=N/Nc2cc(N3CCOCC3)nc(OCCc3ccccn3)n2)c1 [Apilimod, apilimod]
dose needed to inhibit EBOV GP-mediated infection in GFP-PIKfyve vs. GFP expressing cells: higher doses of apilimod were needed to achieve similar levels of inhibition
